Measurements reported in ChEMBL document CHEMBL3885861, “Open TG-GATES”.

Organism: Rattus norvegicus
Test: Open TG-GATES - Regimen: Daily Repeat
Assay type: toxicity, organism-based, Sprague-Dawley
Set-up: regimen Daily Repeat, gender Male, age 6 weeks
Details: in vivo, po, 300 mg/kg, route gavage, dose level Middle; for APTT / Bas / Eos / Fbg / Hb / Ht / Lym / MCH / MCHC / MCV / Mono / Neu / PT / Plat / RBC / Ret / WBC: tissue Blood; for KIDNEY_L / KIDNEY_R / KIDNEY_TOTAL: tissue Kidney; for LIVER: tissue Liver; for A/G / ALP / ALT / AST / BUN / CRE / Ca / Cl / DBIL / GLC / IP / K / LDH / Na / PL / RALB / TBIL / TC / TG / TP / gamma-GTP: tissue Plasma

SMILES: CC[C@@H](CO)NCCN[C@@H](CC)CO [ETHAMBUTOL]
- TERMINAL_BW (72 h, time 3 day): 239.4 g
- APTT (72 h, time 3 day): 21.6 s
- Bas (72 h, time 3 day): 0%
- Eos (72 h, time 3 day): 1%
- Fbg (72 h, time 3 day): 330.2 mg/dL
- Hb (72 h, time 3 day): 13.7 g/dL
- Ht (72 h, time 3 day): 40%
- Lym (72 h, time 3 day): 75%
- MCH (72 h, time 3 day): 21.8 pg
- MCHC (72 h, time 3 day): 34.3%
- MCV (72 h, time 3 day): 63.4 fL
- Mono (72 h, time 3 day): 3%
- Neu (72 h, time 3 day): 19.4%
- PT (72 h, time 3 day): 15.9 s
- Plat (72 h, time 3 day): 113.3 x10_4/uL
- RBC (72 h, time 3 day): 630 x10_4/ul
- Ret (72 h, time 3 day): 6.3%
- WBC (72 h, time 3 day): 92.4 x10_2/uL
- KIDNEY_L (72 h, time 3 day): 1 g
- KIDNEY_R (72 h, time 3 day): 1.1 g
- KIDNEY_TOTAL (72 h, time 3 day): 2.1 g
- LIVER (72 h, time 3 day): 12.5 g
- A/G (72 h, time 3 day): 1.3
- ALP (72 h, time 3 day): 1720.4 IU/L
- ALT (72 h, time 3 day): 43 IU/L
- AST (72 h, time 3 day): 71 IU/L
- BUN (72 h, time 3 day): 17.6 mg/dL
- CRE (72 h, time 3 day): 0.2 mg/dL
- Ca (72 h, time 3 day): 10.7 mg/dL
- Cl (72 h, time 3 day): 108 meq/L
- DBIL (72 h, time 3 day): 0 mg/dL
- GLC (72 h, time 3 day): 209.6 mg/dL
- IP (72 h, time 3 day): 7.6 mg/dL
- K (72 h, time 3 day): 3.9 meq/L
- LDH (72 h, time 3 day): 164.2 IU/L
- Na (72 h, time 3 day): 140.8 meq/L
- PL (72 h, time 3 day): 163.4 mg/dL
- RALB (72 h, time 3 day): 3.2 g/dL
- TBIL (72 h, time 3 day): 0.01 mg/dL
- TC (72 h, time 3 day): 90.2 mg/dL
- TG (72 h, time 3 day): 87.6 mg/dL
- TP (72 h, time 3 day): 5.7 g/dL
- gamma-GTP (72 h, time 3 day): 1.4 IU/L
- TERMINAL_BW ([…], time 7 day): 262.8 g
- TERMINAL_BW ([…], time 14 day): 299.9 g
- TERMINAL_BW ([…], time 28 day): 296 g
- APTT ([…], time 7 day): 20.8 s
- Bas ([…], time 7 day): 0%
- Eos ([…], time 7 day): 0.8%
- Fbg ([…], time 7 day): 303.8 mg/dL
- Hb ([…], time 7 day): 14.2 g/dL
- Ht ([…], time 7 day): 41.4%
- Lym ([…], time 7 day): 82.2%
- MCH ([…], time 7 day): 20.7 pg
- MCHC ([…], time 7 day): 34.3%
- MCV ([…], time 7 day): 60.2 fL
- Mono ([…], time 7 day): 2.4%
- Neu ([…], time 7 day): 13%
- PT ([…], time 7 day): 16.4 s
- Plat ([…], time 7 day): 113.9 x10_4/uL
- RBC ([…], time 7 day): 688.8 x10_4/ul
- Ret ([…], time 7 day): 4.2%
- WBC ([…], time 7 day): 98.6 x10_2/uL
- APTT ([…], time 14 day): 20.4 s
- Bas ([…], time 14 day): 0%
- Eos ([…], time 14 day): 1%
- Fbg ([…], time 14 day): 274.2 mg/dL
- Hb ([…], time 14 day): 14.2 g/dL
- Ht ([…], time 14 day): 42.3%
- Lym ([…], time 14 day): 82.2%
- MCH ([…], time 14 day): 19.2 pg
- MCHC ([…], time 14 day): 33.7%
- MCV ([…], time 14 day): 57 fL
- Mono ([…], time 14 day): 2.4%
- Neu ([…], time 14 day): 13.2%
- PT ([…], time 14 day): 16.8 s
- Plat ([…], time 14 day): 86.9 x10_4/uL
- RBC ([…], time 14 day): 742.8 x10_4/ul
- Ret ([…], time 14 day): 2.3%
- WBC ([…], time 14 day): 118.5 x10_2/uL
- APTT ([…], time 28 day): 21.4 s
- Bas ([…], time 28 day): 0%
- Eos ([…], time 28 day): 1.2%
- Fbg ([…], time 28 day): 257.5 mg/dL
- Hb ([…], time 28 day): 14.6 g/dL
- Ht ([…], time 28 day): 42.3%
- Lym ([…], time 28 day): 77.2%
- MCH ([…], time 28 day): 17.9 pg
- MCHC ([…], time 28 day): 34.5%
- MCV ([…], time 28 day): 51.8 fL
- Mono ([…], time 28 day): 2.8%
- Neu ([…], time 28 day): 17.2%
- PT ([…], time 28 day): 17.8 s
- Plat ([…], time 28 day): 82.7 x10_4/uL
- RBC ([…], time 28 day): 817.8 x10_4/ul
- Ret ([…], time 28 day): 2%
- WBC ([…], time 28 day): 127.3 x10_2/uL
- KIDNEY_L ([…], time 7 day): 1.1 g
- KIDNEY_R ([…], time 7 day): 1.1 g
- KIDNEY_TOTAL ([…], time 7 day): 2.2 g
- KIDNEY_L ([…], time 14 day): 1.3 g
- KIDNEY_R ([…], time 14 day): 1.3 g
- KIDNEY_TOTAL ([…], time 14 day): 2.6 g
- KIDNEY_L ([…], time 28 day): 1.2 g
- KIDNEY_R ([…], time 28 day): 1.3 g
- KIDNEY_TOTAL ([…], time 28 day): 2.5 g
- LIVER ([…], time 7 day): 12.5 g
- LIVER ([…], time 14 day): 15.8 g
- LIVER ([…], time 28 day): 14.5 g
- A/G ([…], time 7 day): 1.1
- ALP ([…], time 7 day): 1774.8 IU/L
- ALT ([…], time 7 day): 60.2 IU/L
- AST ([…], time 7 day): 92.2 IU/L
- BUN ([…], time 7 day): 20.4 mg/dL
- CRE ([…], time 7 day): 0.2 mg/dL
- Ca ([…], time 7 day): 10.2 mg/dL
- Cl ([…], time 7 day): 107.4 meq/L
- DBIL ([…], time 7 day): 0.002 mg/dL
- GLC ([…], time 7 day): 172.2 mg/dL
- IP ([…], time 7 day): 7.9 mg/dL
- K ([…], time 7 day): 4 meq/L
- LDH ([…], time 7 day): 196 IU/L
- Na ([…], time 7 day): 142.2 meq/L
- PL ([…], time 7 day): 141.4 mg/dL
- RALB ([…], time 7 day): 2.8 g/dL
- TBIL ([…], time 7 day): 0.026 mg/dL
- TC ([…], time 7 day): 73 mg/dL
- TG ([…], time 7 day): 43.2 mg/dL
- TP ([…], time 7 day): 5.3 g/dL
- gamma-GTP ([…], time 7 day): 1.8 IU/L
- A/G ([…], time 14 day): 1.1
- ALP ([…], time 14 day): 2103.2 IU/L
- ALT ([…], time 14 day): 68 IU/L
- AST ([…], time 14 day): 115.2 IU/L
- BUN ([…], time 14 day): 24.4 mg/dL
- CRE ([…], time 14 day): 0.2 mg/dL
- Ca ([…], time 14 day): 9.8 mg/dL
- Cl ([…], time 14 day): 106.4 meq/L
- DBIL ([…], time 14 day): 0.02 mg/dL
- GLC ([…], time 14 day): 197 mg/dL
- IP ([…], time 14 day): 7.2 mg/dL
- K ([…], time 14 day): 4.6 meq/L
- LDH ([…], time 14 day): 520.6 IU/L
- Na ([…], time 14 day): 139.8 meq/L
- PL ([…], time 14 day): 139.8 mg/dL
- RALB ([…], time 14 day): 2.6 g/dL
- TBIL ([…], time 14 day): 0.042 mg/dL
- TC ([…], time 14 day): 79.4 mg/dL
- TG ([…], time 14 day): 26.4 mg/dL
- TP ([…], time 14 day): 4.9 g/dL
- gamma-GTP ([…], time 14 day): 1.8 IU/L
- A/G ([…], time 28 day): 1
- ALP ([…], time 28 day): 1083.5 IU/L
- ALT ([…], time 28 day): 66.5 IU/L
- AST ([…], time 28 day): 136 IU/L
- BUN ([…], time 28 day): 19.2 mg/dL
- CRE ([…], time 28 day): 0.2 mg/dL
- Ca ([…], time 28 day): 9.4 mg/dL
- Cl ([…], time 28 day): 109.8 meq/L
- DBIL ([…], time 28 day): 0.0275 mg/dL
- GLC ([…], time 28 day): 209 mg/dL
- IP ([…], time 28 day): 6.8 mg/dL
- K ([…], time 28 day): 4.2 meq/L
- LDH ([…], time 28 day): 602.8 IU/L
- Na ([…], time 28 day): 140.5 meq/L
- PL ([…], time 28 day): 117.5 mg/dL
- RALB ([…], time 28 day): 2.6 g/dL
- TBIL ([…], time 28 day): 0.055 mg/dL
- TC ([…], time 28 day): 70.5 mg/dL
- TG ([…], time 28 day): 24.5 mg/dL
- TP ([…], time 28 day): 5.3 g/dL
- gamma-GTP ([…], time 28 day): 1.5 IU/L
